Reference: patent US20080171764A1, “METHODS FOR PREVENTING, MANAGING, AND REVERSING DISEASE CAUSED BY INFLAMMATION MEDIATED VASCULAR LESIONS” (priority 2007, published 2008)

Columns and labels:
apoE−/− mice [1] = test: abdominal aortic adventitia lesion / AAA analysis (incidence, severity, diameter); assay type: in vivo
From the text: (§1) ApoE^−/− mice (backcrossed ten times to the C57BL/6 background) were purchased from The Jackson Laboratory. The mice were kept on a twelve-hour light/twelve-hour dark regimen upon arrival. All animal experiments were approved by the IACUC of the Consumer & Personal Product Worldwide, in accordance with AAALAC guidelines. Eight week old, male apoE^−/− mice were fed a normal mouse-chow diet (RP5001; PMI Feeds Inc., St. Louis, Mo.) and acclimated for one week before switching to a pro-atherogenic high fat, high cholesterol, diet (“Western diet”, 21% fat, 0.2% cholesterol, diet No. 88137, Harlan-Teklad, Madison, Wis.) for four weeks.
Upon initiation of the pro-atherogenic diet, Alzet osmotic mini-pumps (Model 2004; ALZA Scientific Products, Mountain View, Calif.) were implanted into the apoE^−/− mice subcutaneously. The mini-pumps were loaded with angII (EMD Biosciences, San Diego, Calif.) at the delivery rate of 1,000 ng/min/kg for twenty-eight days. The mice were anesthetized using isoflurane for the implantation of the mini-pumps. Small incisions in the lower back of the neck were made and the mini-pumps were inserted into the subcutaneous space of the mice. The incisions were then closed using sterile staplers. Triple antibiotic ointment was applied to each incision post surgery. The mice on the high fat, high cholesterol diet were sacrificed by CO2 inhalation twenty-eight days post mini-pump implantation as is explained in detail subsequently. […]
The abdominal aorta was subjected to abdominal aortic adventitia lesion analysis. […] Classification of the adventitia lesions was determined according to the scale based on the gross appearance of the aorta reported by Daugherty et al. Briefly, I: Dilated lumen in the supra-renal region of the aorta with no thrombus; II: Remodeled tissue in the supra-renal region that frequently contains thrombus; III: A pronounced bulbous form of type II that contains thrombus; IV: A form in which there are multiple adventitia lesions containing thrombus, some overlapping, in the suprarenal area of the aorta.

apoE−/− mice [2] = test: second study: established lesions, 8 weeks angII infusion and proatherogenic diet, en face analysis; assay type: in vivo; conditions: 1.0 mg/kg ip once daily for last 4 of 8 weeks; vehicle 37.6±2.7%, P<0.0001
Experimental: As stated above, the mice were sacrificed by CO2 inhalation and bled from the abdominal vena cava. The aortas were perfusion-fixed and post-fixed in 4 percent paraformaldehyde. Atherosclerosis quantitation was assessed using two independent methods: “en face” surface lesion analysis and aortic root analysis. The aortic arch and thoracic aorta (defined as above the last inter-costal artery) was subjected to “en face” analysis. Briefly, the aorta with major branches (left common carotid artery, right common carotid artery, left subclavian artery) was opened up. The lipid deposition in the inner aortic wall was stained in Sudan IV buffer. […] The extent of atherosclerosis is expressed as the percent of the aortic surface area covered by lesions. Aortic root analysis provided a second method verifying atherosclerosis quantitation. Briefly, alternate 8-μm frozen sections covering 300 μm of the proximal aorta, starting at the aortic sinus, were stained for atherosclerotic lesions with oil red O. Images of oil red O-stained aortic root sections were captured and analyzed using Image-Pro 6.0 analysis software. All samples were coded by one investigator and analyzed by another investigator who is completely blinded to the codes. […]

apoE−/− mice [3] = test: atherosclerosis quantitation, en face surface lesion analysis (Sudan IV), 4-week study; assay type: in vivo; conditions: 1.0 mg/kg ip once daily, vehicle 12.9±1.8%, P<0.0005
From the text: ApoE^−/− mice (backcrossed ten times to the C57BL/6 background) were purchased from The Jackson Laboratory. The mice were kept on a twelve-hour light/twelve-hour dark regimen upon arrival. All animal experiments were approved by the IACUC of the Consumer & Personal Product Worldwide, in accordance with AAALAC guidelines. Eight week old, male apoE^−/− mice were fed a normal mouse-chow diet (RP5001; PMI Feeds Inc., St. Louis, Mo.) and acclimated for one week before switching to a pro-atherogenic high fat, high cholesterol, diet (“Western diet”, 21% fat, 0.2% cholesterol, diet No. 88137, Harlan-Teklad, Madison, Wis.) for four weeks. […]
As stated above, the mice were sacrificed by CO2 inhalation and bled from the abdominal vena cava. […] Atherosclerosis quantitation was assessed using two independent methods: “en face” surface lesion analysis and aortic root analysis. […] The extent of atherosclerosis is expressed as the percent of the aortic surface area covered by lesions. Aortic root analysis provided a second method verifying atherosclerosis quantitation. Briefly, alternate 8-μm frozen sections covering 300 μm of the proximal aorta, starting at the aortic sinus, were stained for atherosclerotic lesions with oil red O. Images of oil red O-stained aortic root sections were captured and analyzed using Image-Pro 6.0 analysis software. […]

[4] = plasma lipids (total cholesterol, triglycerides, LDL and HDL cholesterol); assay type: in vivo, mice
From the text: as §1
Upon initiation of the pro-atherogenic diet, Alzet osmotic mini-pumps (Model 2004; ALZA Scientific Products, Mountain View, Calif.) were implanted into the apoE^−/− mice subcutaneously. The mini-pumps were loaded with angII (EMD Biosciences, San Diego, Calif.) at the delivery rate of 1,000 ng/min/kg for twenty-eight days. The mice were anesthetized using isoflurane for the implantation of the mini-pumps. […]
Plasma triglyceride and total cholesterol levels were determined via an automated enzymatic technique (Equal Diagnostic Inc., Exton, Pa.). […] Aliquots of mouse plasma (100 μl) were injected onto the column, separated with a buffer containing 0.15 M NaCl, 0.01 M Na2HPO4, and 0.1 mM EDTA (pH 7.5) at a flow rate of 0.5 mL/min, and analyzed for lipids.

[5] = sirolimus whole blood pharmacokinetics in apoE-/- mice (LC-MS/MS); assay type: in vivo; conditions: i.p. daily, 0.5, 1.0 and 4.0 mg/kg
Experimental: (§2) Upon initiation of the pro-atherogenic diet and osmotic mini-pump implantation, mice were randomly assigned to four groups; namely, vehicle control, rapamycin or sirolimus 0.5 mg/kg, sirolimus 1.0 mg/kg and sirolimus 4.0 mg/kg body weight. The defined amount of sirolimus was dissolved in ethanol, brought up in a vehicle comprising 0.2 percent Sodium carboxymethylcellulose and 0.25 percent tween 80) and administrated to mice (i.p., daily).
Sirolimus was quantitated using liquid-liquid extraction and reverse-phase liquid chromatography mass spectrometry (LC-MS/MS). Briefly, 100 μl of mouse whole blood sample underwent protein precipitation with 5 percent Methanol/Zinc sulfate solution containing the internal standard ascomycin. After centrifugation of the resulting solution, the liquid mixture proceeded with liquid-liquid extraction with 1-chlorobutane. The combined organic extract was then blown down to dryness and reconstituted with 50:50 Methanol:20 mM ammonium acetate solution. The samples were analyzed on API-5000 using C18 reverse-phase chromatography in Multiple Reaction Monitoring (MRM) mode using atmospheric pressure chemical ionization (ApCI) approach. The calibration standard curve results for sirolimus in mouse whole blood were acceptable from 0.5 ng/ml to 10,000 ng/ml with correlation coefficient of 0.998. […]

apoE−/− mice [6] = test: health status, body weight and re-suturing incidence post mini-pump surgery; assay type: in vivo
From the text: as §1
Upon initiation of the pro-atherogenic diet, Alzet osmotic mini-pumps (Model 2004; ALZA Scientific Products, Mountain View, Calif.) were implanted into the apoE^−/− mice subcutaneously. The mini-pumps were loaded with angII (EMD Biosciences, San Diego, Calif.) at the delivery rate of 1,000 ng/min/kg for twenty-eight days. The mice were anesthetized using isoflurane for the implantation of the mini-pumps. Small incisions in the lower back of the neck were made and the mini-pumps were inserted into the subcutaneous space of the mice. The incisions were then closed using sterile staplers. Triple antibiotic ointment was applied to each incision post surgery. The mice on the high fat, high cholesterol diet were sacrificed by CO2 inhalation twenty-eight days post mini-pump implantation as is explained in detail subsequently.
as §2
The data is depicted as re-suturing incedince post surgery per group size. A clear increase of the suture index is observed in response to sirolimus administration in a dose dependent manner.

CO[C@H]1C[C@@H]2CC[C@@H](C)[C@@](O)(O2)C(=O)C(=O)N2CCCC[C@H]2C(=O)O[C@H]([C@H](C)C[C@@H]2CC[C@@H](O)[C@H](OC)C2)CC(=O)[C@H](C)/C=C(\C)[C@@H](O)[C@@H](OC)C(=O)[C@H](C)C[C@H](C)/C=C/C=C/C=C/1C [sirolimus]
incidence of abdominal aortic adventitia lesion (apoE−/− mice [1]; 1 of 22 mice receiving sirolimus, vehicle control 30 percent (3 of 10)): 4.5%
severity of AAA as determined by aortic diameter (apoE−/− mice [1]; vehicle 1.38±0.25 mm, P<0.005): 0.74±0.02 mm
incidence of AAA (apoE−/− mice [1]; vehicle 32%, P<0.005): 0%
atherosclerotic plaque area (en face analysis) of established lesions at 8 weeks (apoE−/− mice [2]): 18.4±2.3%
atherosclerotic plaque area (en face analysis) at 4 weeks (apoE−/− mice [3]): 3.1±0.4%
elevation of LDL cholesterol ([4]; all sirolimus treated mice vs vehicle control): > 60%
plasma triglyceride ([4]; regardless of the dosage employed): trend of elevated triglyceride
time of peak whole blood drug level post injection [5]: 1 h
whole blood drug level at 24 hours ([5]; 24 hours post injection): trace level
incidence of re-suturing post surgery for mini-pump implantation (wound healing) (apoE−/− mice [6]; 0.5, 1.0 and 4.0 mg/kg i.p. daily): increased incidence of re-suturing
body weight (apoE−/− mice [6]; all 3 sirolimus treated groups vs vehicle control): trend of decreased body weight
health status (apoE−/− mice [6]; apoE−/− mice, i.p. daily, 0.5, 1.0 and 4.0 mg/kg, 4 weeks): not overtly affected
